Some results are limits rather than exact numbers.

These results are taken from US10183943B2, “Heterocyclic compounds and their use in preventing or treating bacterial infections” (MUTABILIS, priority 2015, dated 2019).

Experiment [1] deals with T1, OXA-15 (Pseudomonas aeruginosa, UniProt Q51574).
T1 construct: made in house; host or cells: E. coli
Nature of the experiment: biochemical.

Experiment [2] deals with T2, KPC-2 (Klebsiella pneumoniae, UniProt Q9F663).
T2 construct: made in house; host or cells: E. coli
T2 sequence (Q9F663 25-293 limits assumed): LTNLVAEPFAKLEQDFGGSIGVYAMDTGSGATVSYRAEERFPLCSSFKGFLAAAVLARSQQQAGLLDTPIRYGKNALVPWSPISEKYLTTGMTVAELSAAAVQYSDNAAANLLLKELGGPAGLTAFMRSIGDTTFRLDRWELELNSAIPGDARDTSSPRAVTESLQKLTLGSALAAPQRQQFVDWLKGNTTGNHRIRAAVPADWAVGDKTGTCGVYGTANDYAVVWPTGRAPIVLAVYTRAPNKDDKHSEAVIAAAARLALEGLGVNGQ
In words: β-lactamase inhibitory activity, determination of IC50 (nitrocefin hydrolysis). The note with it: class (A); nitrocefin 200 μM, 30 min pre-incubation; read-out: IC50 β-lactamase KPC-2. The class given is biochemical.

Experiment [3] has as its target T3, CTX-M-15 (Escherichia coli, UniProt Q9EXV5).
T3 construct: made in house; host or cells: E. coli
Described as above. The class given is biochemical. The note with it: class (A); nitrocefin 200 μM, 30 min pre-incubation; read-out: IC50 β-lactamase CTX-M-15.

The target of experiment [4] is T4, OXA-48 (Klebsiella pneumoniae, UniProt Q6XEC0).
T4 construct: made in house; host or cells: E. coli
T4 sequence (Q6XEC0 23-265 limits assumed): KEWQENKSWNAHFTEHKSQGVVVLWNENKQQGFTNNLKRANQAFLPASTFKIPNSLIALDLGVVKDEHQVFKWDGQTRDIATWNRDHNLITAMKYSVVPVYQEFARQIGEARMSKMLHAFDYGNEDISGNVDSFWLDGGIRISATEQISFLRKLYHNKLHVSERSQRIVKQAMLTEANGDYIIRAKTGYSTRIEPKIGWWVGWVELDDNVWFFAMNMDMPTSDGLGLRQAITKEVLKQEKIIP
Described as above. The class given is biochemical. The conditions noted are these: class (D); nitrocefin 200 μM, 30 min pre-incubation; read-out: IC50 β-lactamase OXA-48.

Experiment [5] concerns E. cloacae UFR51 (SHV-12, IMP-8). In words: MIC of ceftazidime (CAZ) in combination with compounds at 4 μg/mL, broth microdilution. The class given is cell-based. The note with it: strain UFR51; MIC of CAZ with compound fixed at 4 μg/mL. The method, boiled down: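 Compounds were dissolved in DMSO and spotted onto plates. Log-phase cells were then added at 5×10^5 cfu/mL in cation-adjusted Mueller-Hinton broth, incubated 16-20 h at 35° C, and the MIC was scored visually as the lowest growth-inhibiting concentration.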

The subject of experiment [6] is E. coli UFR41 (TEM-1, CTX-M-15, CMY-2, OXA-1, NDM-4). In words: MIC of compounds alone, broth microdilution. The class given is cell-based. The note with it: Escherichia coli, read-out: MIC compounds of the invention alone. Summed up:
(§1)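 MIC taken by visual inspection as lowest concentration with no growth, after 16-20 h at 35 °C in ambient air. Compounds tested alone from DMSO by CLSI broth microdilution; inoculum of log-phase cells at 5×10^5 cfu/mL in cation-adjusted Mueller-Hinton broth.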

The test system of experiment [7] is K. pneumoniae UFR77 (CMY-2). Nature of the experiment: MIC of compounds alone, broth microdilution. The class given is cell-based. The note with it: Klebsiella pneumoniae; strain UFR77 (K. pneumoniae); read-out: MIC compounds of the invention alone. The method, boiled down:
as §1

In experiment [8] the test system is E. coli UFR74 (SHV-1, DHA-1). Nature of the experiment: MIC of compounds alone, broth microdilution. The class given is cell-based. The conditions noted are these: Escherichia coli; strain UFR74 (E. coli); read-out: MIC compounds of the invention alone. The method, boiled down:
as §1

Experiment [9] has as its system P. aeruginosa CIP107051 (TEM-24). In words: MIC of compounds alone, broth microdilution. The class given is cell-based. The note with it: Pseudomonas aeruginosa; strain CIP107051 (P. aeruginosa); read-out: MIC compounds of the invention alone. Summed up:
as §1

Experiment [10] relates to E. coli UFR18 (CTX-M-15, OXA-204). Nature of the experiment: MIC of compounds alone, broth microdilution. The class given is cell-based. The note with it: Escherichia coli; strain UFR18 (E. coli); read-out: MIC compounds of the invention alone. Summed up: as §1
Experiment [11] deals with K. pneumoniae BAA-1898 (TEM-1, SHV-11, SHV-12, KPC-2). In words: MIC of compounds alone, broth microdilution. The class given is cell-based. The note with it: Klebsiella pneumoniae, BAA1898; strain BAA-1898 (K. pneumoniae); read-out: MIC compounds of the invention alone. The method, boiled down:
as §1

Experiment [12] relates to K. pneumoniae UFR24 (TEM-1, SHV-2, SHV-11, OXA-1, OXA-48, OXA-47). Nature of the experiment: MIC of compounds alone, broth microdilution. The class given is cell-based. The conditions noted are these: Klebsiella pneumoniae; strain UFR24 (K. pneumoniae); read-out: MIC compounds of the invention alone. The method, boiled down:
as §1

Experiment [13] relates to K. pneumoniae 200047 (TEM-1, SHV-32, CTX-M-15, OXA-1). Nature of the experiment: MIC of compounds alone, broth microdilution. The conditions noted are these: Klebsiella pneumoniae, read-out: MIC compounds of the invention alone. The class given is cell-based. Summed up: as §1
The test system of experiment [14] is E. cloacae UFR51 (SHV-12, IMP-8). In words: MIC of compounds alone, broth microdilution. The class given is cell-based. The conditions noted are these: Enterobacter cloacae; strain UFR51 (E. cloacae); read-out: MIC compounds of the invention alone. Summed up: as §1
The test system of experiment [15] is E. cloacae P99 (AmpC). Nature of the experiment: MIC of compounds alone, broth microdilution. The note with it: Enterobacter cloacae; strain P99 (E. cloacae); read-out: MIC compounds of the invention alone. The class given is cell-based. Summed up:
as §1

In experiment [16] the test system is E. coli UFR32 (TEM-1, VEB-1, OXA-10). In words: MIC of compounds alone, broth microdilution. The class given is cell-based. The note with it: Escherichia coli; strain UFR32 (E. coli); read-out: MIC compounds of the invention alone. Summed up:
as §1

Experiment [17] deals with K. pneumoniae UFR39 (CTX-M-15, NDM-1). Nature of the experiment: MIC of compounds alone, broth microdilution. The class given is cell-based. The note with it: Klebsiella pneumoniae; strain UFR39 (K. pneumoniae); read-out: MIC compounds of the invention alone. The method, boiled down:
as §1

The test system of experiment [18] is K. pneumoniae 160143 (TEM-1, SHV-1, CTX-M-15, KPC-2, OXA-1). In words: MIC of compounds alone, broth microdilution. The class given is cell-based. The conditions noted are these: Klebsiella pneumoniae, read-out: MIC compounds of the invention alone. Summed up: as §1
Experiment [19] relates to K. oxytoca UFR21 (TEM-1, CTX-M-15, OXA-48). In words: MIC of compounds alone, broth microdilution. The class given is cell-based. The note with it: Klebsiella oxytoca, read-out: MIC compounds of the invention alone. The method, boiled down: as §1
For experiment [20], the system named is E. coli RGN238 (OXA-1). Nature of the experiment: MIC of compounds alone, broth microdilution. The conditions noted are these: Escherichia coli; strain RGN238 (E. coli); read-out: MIC compounds of the invention alone. The class given is cell-based. The method, boiled down: as §1
Experiment [21] relates to E. coli UFR61O (TEM-1, KPC-2). Nature of the experiment: MIC of compounds alone, broth microdilution. The note with it: Escherichia coli; strain UFR61O (E. coli); read-out: MIC compounds of the invention alone. The class given is cell-based. Summed up: as §1
Experiment [22] has as its system E. coli 131119 (TEM-1, OXA-48). In words: MIC of compounds alone, broth microdilution. The class given is cell-based. The conditions noted are these: Escherichia coli; strain 131119 (E. coli); read-out: MIC compounds of the invention alone. Summed up:
as §1

Experiment [23] concerns K. pneumoniae 6299 (TEM-1, SHV-11, OXA-163). In words: MIC of compounds alone, broth microdilution. The class given is cell-based. The note with it: Klebsiella pneumoniae; strain 6299 (K. pneumoniae); read-out: MIC compounds of the invention alone. Summed up:
as §1

T1 sequence (Q51574 22-275): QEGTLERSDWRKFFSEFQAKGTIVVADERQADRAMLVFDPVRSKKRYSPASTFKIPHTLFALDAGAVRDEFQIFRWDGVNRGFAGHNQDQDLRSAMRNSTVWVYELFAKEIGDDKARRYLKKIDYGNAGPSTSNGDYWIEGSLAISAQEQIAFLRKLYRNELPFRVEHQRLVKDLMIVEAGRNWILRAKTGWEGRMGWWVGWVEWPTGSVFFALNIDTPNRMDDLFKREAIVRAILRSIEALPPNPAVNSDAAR
T3 sequence (Q9EXV5 entry or part of it): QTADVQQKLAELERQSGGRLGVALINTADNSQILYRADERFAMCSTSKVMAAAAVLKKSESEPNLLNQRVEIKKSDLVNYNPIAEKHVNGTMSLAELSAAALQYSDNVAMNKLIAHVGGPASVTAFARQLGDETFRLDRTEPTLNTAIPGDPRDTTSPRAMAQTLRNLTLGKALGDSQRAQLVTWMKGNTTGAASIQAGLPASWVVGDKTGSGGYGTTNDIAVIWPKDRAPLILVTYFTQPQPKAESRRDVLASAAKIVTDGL

On to `O=C1N2CC(c3ncco3)=C[C@H](C2)N1OS(=O)(=O)[O-].[Na+]` [Example 44, Sodium [(5R)-3-(oxazol-2-yl)-7-oxo-1,6-diazabicyclo[3.2.1]oct-3-en-6-yl] sulfate], for which the IC50 in experiment [1] is 67 nM; in experiment [2], 11 nM; in experiment [3] it was 0.61 nM; in experiment [4], 1.5 nM. Moreover, the “MIC combination of CAZ and compounds of the invention at 4 μg/mL” value in experiment [5] was less than 0.25 µg/mL. The MIC in experiment [6] is 4 µg/mL; in experiment [7], 2 µg/mL; in [8] it was 2 µg/mL; in [9], greater than 32 µg/mL; in experiment [10] it was 1 µg/mL; in experiment [11], 4 µg/mL. The MIC in [12] was 2 µg/mL; in [13], 1 µg/mL; in experiment [14], 1 µg/mL; in experiment [15], 4 µg/mL; in [16] it was 1 µg/mL; in experiment [17], 4 µg/mL. Further, the minimum inhibitory concentration (MIC) was 1 µg/mL in experiment [18]; 4 µg/mL in experiment [19]; 1 µg/mL in experiment [20]; 4 µg/mL in [21]; 0.5 µg/mL in [22]; 4 µg/mL in experiment [23].
